Test system: KRAS PDC multicell spheroid viability
Experiment: Anticancer human tumor 825966-067-R-J1-PDC patient-derived colon carcinoma cell line growth inhibition [KRAS2]
Details: for IC50: curve of first compound; for viability, T/C: stronger effect = lower value
How it was run: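 KRAS-mutant tumor cells were grown as spheroids with HUVEC endothelial cells and human MSCs as stroma. Targeted agents were tested alone and with KRAS pathway inhibitors. Doses started at or near clinical Cmax, or 10 microM, descending half-log.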

[1] = second compound 0.1 µM, first compound 0.000316 µM
[2] = second compound 0.1 µM, first compound 0.001 µM
[3] = second compound 0.1 µM, first compound 0.00316 µM
[4] = second compound 0.1 µM, first compound 0.01 µM
[5] = second compound 0.1 µM, first compound 0.0316 µM
[6] = second compound 0.1 µM, first compound 0.1 µM
[7] = second compound 0.316 µM, first compound 0.000316 µM
[8] = second compound 0.316 µM, first compound 0.001 µM
[9] = second compound 0.316 µM, first compound 0.00316 µM
[10] = second compound 0.316 µM, first compound 0.01 µM
[11] = second compound 0.316 µM, first compound 0.0316 µM
[12] = second compound 0.316 µM, first compound 0.1 µM
[13] = second compound 1 µM, first compound 0.000316 µM
[14] = second compound 1 µM, first compound 0.001 µM
[15] = second compound 1 µM, first compound 0.00316 µM
[16] = second compound 1 µM, first compound 0.01 µM
[17] = second compound 1 µM, first compound 0.0316 µM
[18] = second compound 1 µM, first compound 0.1 µM
[19] = second compound 3.16 µM, first compound 0.000316 µM
[20] = second compound 3.16 µM, first compound 0.001 µM
[21] = second compound 3.16 µM, first compound 0.00316 µM
[22] = second compound 3.16 µM, first compound 0.01 µM
[23] = second compound 3.16 µM, first compound 0.0316 µM
[24] = second compound 3.16 µM, first compound 0.1 µM
[25] = second compound 10 µM, first compound 0.000316 µM
[26] = second compound 10 µM, first compound 0.001 µM
[27] = second compound 10 µM, first compound 0.00316 µM
[28] = second compound 10 µM, first compound 0.01 µM
[29] = second compound 10 µM, first compound 0.0316 µM
[30] = second compound 10 µM, first compound 0.1 µM
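Note: spheroids exposed to compounds for 7 days.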
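Throughout, for viability, T/C: 100% = DMSO vehicle control viability.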

Row | Structure (SMILES) | IC50 (second compound 0.1 µM) | IC50 (second compound 0.316 µM) | IC50 (second compound 1 µM) | IC50 (second compound 3.16 µM) | IC50 (second compound 10 µM) | viability, T/C [1] | viability, T/C [2] | viability, T/C [3] | viability, T/C [4] | viability, T/C [5] | viability, T/C [6] | viability, T/C [7] | viability, T/C [8] | viability, T/C [9] | viability, T/C [10] | viability, T/C [11] | viability, T/C [12] | viability, T/C [13] | viability, T/C [14] | viability, T/C [15] | further results
1 | CC(C)n1nc(-c2ccc3oc(N)nc3c2)c2c(N)ncnc21 + CNCc1ccccc1-c1csc(C(C)Nc2nc(C)nc3cc(OC)c(OC)cc23)c1 | > 100 nM | > 100 nM | > 100 nM | 1.92 nM | < 0.316 nM | 126% | 113% | 159% | 185% | 128% | 154% | 117% | 150% | 172% | 136% | 142% | 109% | 131% | 135% | 156% | viability, T/C [16]: 132%; viability, T/C [17]: 76.4%; viability, T/C [18]: 84.2%; viability, T/C [19]: 66.2%; viability, T/C [20]: 105%; viability, T/C [21]: 22.9%; viability, T/C [22]: 1.2%; viability, T/C [23]: 12.4%; viability, T/C [24]: 2.02%; viability, T/C [25]: 0.21%; viability, T/C [26]: 0.64%; viability, T/C [27]: 1.75%; viability, T/C [28]: 0.23%; viability, T/C [29]: 0.41%; viability, T/C [30]: 0.41%
2 | Cn1ncnc1[C@H]1c2n[nH]c(=O)c3cc(F)cc(c23)N[C@@H]1c1ccc(F)cc1 + COc1cc2nc(C)nc(NC(C)c3cc(N)cc(C(F)(F)F)c3)c2cc1OC1CCOC1 | > 100 nM | > 100 nM | > 100 nM | > 100 nM | < 0.316 nM | 92.2% | 89.3% | 90.6% | 76.7% | 83.9% | 70.9% | 86.3% | 94.4% | 82.4% | 101% | 65.3% | 64.4% | 86.3% | 99.4% | 107% | viability, T/C [16]: 79.2%; viability, T/C [17]: 84.2%; viability, T/C [18]: 92.1%; viability, T/C [19]: 116%; viability, T/C [20]: 103%; viability, T/C [21]: 114%; viability, T/C [22]: 94.7%; viability, T/C [23]: 105%; viability, T/C [24]: 89.3%; viability, T/C [25]: 11.3%; viability, T/C [26]: 10.4%; viability, T/C [27]: 17.1%; viability, T/C [28]: 21.1%; viability, T/C [29]: 11.8%; viability, T/C [30]: 7.86%
